Drawing on US11834458B2, “Anti-cancer nuclear hormone receptor-targeting compounds” (Nuvation Bio Inc., priority 2021, dated 2023), this text covers IC50 and GI50 for 8 molecules.

The structures appear in SMILES notation. Read-outs that look alike come from different tables or passages of the source.

One test concerns the target AR (Homo sapiens (Human), UniProt P10275, T878A). The test is described as follows: AR binding assay. As to the method: AR binding assay: To assess AR binding, test compound (top dose 10 μM, 4 fold serial dilution, 8 point dose response) and control (progesterone) were transferred to the assay plate. Cytosol from LnCaP cells was added to the plate, followed by addition of radiolabeled ^3H-R1881 at a final concentration of 1 nM. The plate was sealed, and the reaction was incubated at 300 rpm at 4° C. for 24 hrs. Radioligand absorption buffer (10 mM Tris-HCl, pH 7.4; 1.5 mM EDTA; 1 mM DTT; 0.25% charcoal; 0.0025% dextran) was then added to the plate, mixed, and incubated at 4° C. for 15 minutes. The plate was then centrifuged at 3000 rpm for 30 minutes at 4° C. The supernatant was transferred to the scint-tube and Tri-carb was used for scintillation counting. The data was analyzed using GraphPadPrism v5.0 and binding IC50 was determined as the concentration where 50% inhibition of radioligand binding was observed.

The next test has as its system 22Rv1 cells. The test is described as follows: Cell viability assay, 22Rv1. In kind it is cell-based. Particulars: Homo sapiens. Here is the method: (§1) Cell viability assay: LNCap, 22Rv1, MCF7, MDAMB361, T47D, and IEC6 cells are seeded at a density of 500-2000 cells/well in 96 well plates, and a ‘T0’ (timepoint 0) was included along with the assay plate. The plates are then incubated at 37° C., 5% CO2 in a cell culture incubator overnight. On the next day, the ‘T0’ plate was assayed using CellTiterGlo (Promega, Inc) according to the manufacturer's instructions. The appropriate compounds are diluted in DMSO and added to the assay plate (final DMSO concentration of 0.1-0.2%) on the next day. The assay plates are incubated for 6 days at 37° C., 5% CO2. After the incubation period, the plates are assayed using CellTiterGlo (Promega, Inc) according to the manufacturer's instructions and luminescence was read on the EnVision plate reader. Inhibition of the tested compounds was determined by the following formula: Inhibition rate (%)=(1−(RLU compound−RLU day0)/(RLU control−RLU day0))*100%. GraphPadPrism was used to analyze the data and determine GI50/IC50 values.

Test [1] deals with full-length androgen receptor (Homo sapiens (Human), UniProt P10275). The test is described as follows: AR antagonism assay. In kind it is cell-based. As to the method:
AR antagonism assay: To evaluate AR antagonist activity, test compound was added to the assay plate (top dose 10 μM, 3 fold serial dilution, 10 point dose response). HEK293 cells stably expressing the full-length androgen receptor were seeded at a density of 20,000 cells/well in the assay plate. The assay plate was then incubated at room temperature for 10 minutes and at 37° C., 5% CO2 for 20 minutes. Testosterone was added to the assay plate at 1 nM final concentration and the assay plate incubated at 37° C., 5% CO2 for 20 h. After the incubation period, Steady-glo was added to the assay plate and mixed at room temperature for 20 minutes on an orbital shaker, before reading out on the EnVision plate reader.

The next test concerns IEC6 cells. The test is described as follows: Cell viability assay, IEC6. The class given is cell-based. Particulars: Rattus norvegicus. Here is the method:
as §1

Another test has as its system LNCap cells. The test is described as follows: Cell viability assay, LNCap. The class given is cell-based. Particulars: Homo sapiens, 144 h. As to the method: as §1
Setting [2] is: 22Rv1, 144 h, read-out: 22RV1 (GI50, nM).
Setting [3] is: HEK293 cells stably expressing full-length androgen receptor, testosterone 1 nM, 20 h, read-out: AR antagonism.
The mark [4] stands for this setting: IEC-6, 144 h, read-out: IEC-6 (IC50, nM).
Setting [5] is: LNCaP, read-out: LNCap (GI50, nM).
The mark [6] stands for this setting: cytosol from LnCaP cells, 3H-R1881 1 nM, 4° C. 24 hrs, read-out: AR binding.
[7] abbreviates: 144 h, 22RV1 cells, 6 days, CellTiterGlo, read-out: 22RV1 (GI50).
[8] abbreviates: 144 h, IEC-6 cells, 6 days, CellTiterGlo, read-out: IEC-6 (IC50).
The mark [9] stands for this setting: LNCap cells, 6 days, CellTiterGlo, read-out: LNCap (GI50).

AR, sequence (P10275 whole entry T878A): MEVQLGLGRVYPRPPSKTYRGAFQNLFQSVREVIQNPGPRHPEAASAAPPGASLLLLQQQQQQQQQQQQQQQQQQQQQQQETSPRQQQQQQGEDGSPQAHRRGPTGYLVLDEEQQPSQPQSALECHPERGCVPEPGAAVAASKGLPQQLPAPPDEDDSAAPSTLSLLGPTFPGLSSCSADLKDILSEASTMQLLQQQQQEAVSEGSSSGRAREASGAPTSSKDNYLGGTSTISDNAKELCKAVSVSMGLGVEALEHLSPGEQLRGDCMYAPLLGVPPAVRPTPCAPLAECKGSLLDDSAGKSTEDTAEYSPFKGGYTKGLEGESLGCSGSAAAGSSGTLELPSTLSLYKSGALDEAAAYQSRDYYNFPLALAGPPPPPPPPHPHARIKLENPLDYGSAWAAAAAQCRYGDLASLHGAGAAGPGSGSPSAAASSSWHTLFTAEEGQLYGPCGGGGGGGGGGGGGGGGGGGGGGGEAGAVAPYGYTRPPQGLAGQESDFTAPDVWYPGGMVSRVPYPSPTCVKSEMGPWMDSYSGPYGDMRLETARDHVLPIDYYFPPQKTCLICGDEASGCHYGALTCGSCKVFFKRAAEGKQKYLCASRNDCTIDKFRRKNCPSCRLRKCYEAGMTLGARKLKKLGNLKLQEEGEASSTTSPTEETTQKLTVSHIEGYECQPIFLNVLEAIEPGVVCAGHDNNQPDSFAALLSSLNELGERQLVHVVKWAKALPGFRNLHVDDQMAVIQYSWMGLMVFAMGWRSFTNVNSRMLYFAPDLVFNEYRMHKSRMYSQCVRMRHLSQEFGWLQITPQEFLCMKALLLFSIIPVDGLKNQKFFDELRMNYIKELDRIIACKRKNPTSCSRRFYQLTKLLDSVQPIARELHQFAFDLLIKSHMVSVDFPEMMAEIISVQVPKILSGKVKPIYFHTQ
full-length androgen receptor, sequence (P10275 whole entry): as the sequence (P10275 whole entry T878A) above, with A878T counted along it

In general, GI50 refers to the concentration that inhibits growth by half. Take `CC[C@@]1(O)C(=O)OCc2c1cc1n(c2=O)Cc2cc3c(CN(C)C)c(OC(=O)N4CCC(N(C)C(=O)CO[C@H]5CC[C@H]6[C@@H]7CC[C@H]8CC(=O)CC[C@]8(C)[C@H]7CC[C@]56C)CC4)ccc3nc2-1` [Compound 20, (S)-10-((Dimethylamino)methyl)-4-ethyl-4-hydroxy-3,14-dioxo-3,4,12,14-tetrahydro-1H-pyrano[3′,4′:6,7]indolizino[1,2-b]quinolin-9-yl 4-(2-(((5S,8R,9S,10S,13S,14S,17S)-10,13-dimethyl-3-oxohexadecahydro-1H-cyclopenta[a]phenanthren-17-yl)oxy)-N-methylacetamido)piperidine-1-carboxylate]: the IC50 at AR was 10 to 500 nM; in test [1] (setting [3]), above 1000 nM; in the test on IEC6 cells (setting [4]), above 1000 nM. Besides, the 50% growth inhibitory concentration (GI50) with 22Rv1 cells (setting [2]) and in the test on LNCap cells (setting [5]) was 10 to 500 nM throughout.

On to `CC[C@@]1(O)C(=O)OCc2c1cc1n(c2=O)Cc2cc3c(CN(C)C)c(OC(=O)N(C)C4CCN(C(=O)CO[C@H]5CC[C@H]6[C@@H]7CC[C@H]8CC(=O)CC[C@]8(C)[C@H]7CC[C@]56C)CC4)ccc3nc2-1` [Compound 21, (S)-10-((Dimethylamino)methyl)-4-ethyl-4-hydroxy-3,14-dioxo-3,4,12,14-tetrahydro-1H-pyrano[3′,4′:6,7]indolizino[1,2-b]quinolin-9-yl (1-(2-(((5S,8R,9S,10S,13S,14S,17S)-10,13-dimethyl-3-oxohexadecahydro-1H-cyclopenta[a]phenanthren-17-yl)oxy)acetyl)piperidin-4-yl)(methyl)carbamate], for which the IC50 on AR is 10 to 500 nM; in test [1] (setting [3]) it was above 1000 nM; in the test on IEC6 cells (setting [4]) it was above 1000 nM. Further, the GI50 in the test with 22Rv1 cells (setting [2]) and in the test with LNCap cells (setting [5]) was 10 to 500 nM in each case.

In the case of `CC[C@@]1(O)C(=O)OCc2c1cc1n(c2=O)Cc2cc3c(CN4CCC(N(C)C(=O)CO[C@H]5CC[C@H]6[C@@H]7CC[C@H]8CC(=O)CC[C@]8(C)[C@H]7CC[C@]56C)CC4)c(O)ccc3nc2-1` [Compound 18, 2-(((5S,8R,9S,10S,13S,14S,17S)-10,13-Dimethyl-3-oxohexadecahydro-1H-cyclopenta[a]phenanthren-17-yl)oxy)-N-(1-(((S)-4-ethyl-4,9-dihydroxy-3,14-dioxo-3,4,12,14-tetrahydro-1H-pyrano[3′,4′:6,7]indolizino[1,2-b]quinolin-10-yl)methyl)piperidin-4-yl)-N-methylacetamide], the results for the IC50 (at AR (setting [6]); in test [1]; in the test with IEC6 cells (setting [8])) were 10 to 500 nM, above 1000 nM and above 1000 nM, respectively. Also, the GI50 in the test with 22Rv1 cells (setting [7]) and with LNCap cells (setting [9]) was 10 to 500 nM in each case.

Turning to `CC[C@@]1(O)C(=O)OCc2c1cc1n(c2=O)Cc2cc3c(CN(C)C)c(OC(=O)N4CCN(CCCCCCO[C@@H]5CC[C@@H]6[C@H]7CC[C@@H]8CC(=O)CC[C@@]8(C)[C@@H]7CC[C@]65C)CC4)ccc3nc2-1` [Compound 8, (S)-10-((Dimethylamino)methyl)-4-ethyl-4-hydroxy-3,14-dioxo-3,4,12,14-tetrahydro-1H-pyrano[3′,4′:6,7]indolizino[1,2-b]quinolin-9-yl 4-(6-(((5R,8S,9R,10R,13R,14R,17R)-10,13-dimethyl-3-oxohexadecahydro-1H-cyclopenta[a]phenanthren-17-yl)oxy)hexyl)piperazine-1-carboxylate], the values for the IC50 (at AR; in test [1] (setting [3]); with IEC6 cells (setting [4])) were 10 to 500 nM, above 1000 nM and above 1000 nM, respectively. Also, the GI50 in the test with 22Rv1 cells (setting [2]) and in the test with LNCap cells (setting [5]) was 10 to 500 nM each time.

`CC[C@@]1(O)C(=O)OCc2c1cc1n(c2=O)Cc2cc3c(CN4CCN(C(=O)CCCCCOc5ccc(C(=O)N[C@H]6CC[C@H](Oc7ccc(C#N)c(Cl)c7)CC6)cc5)CC4)c(O)ccc3nc2-1` [Compound 12, N-((1r,4r)-4-(3-Chloro-4-cyanophenoxy)cyclohexyl)-4-((6-(4-(((S)-4-ethyl-4,9-dihydroxy-3,14-dioxo-3,4,12,14-tetrahydro-1H-pyrano[3′,4′:6,7]indolizino[1,2-b]quinolin-10-yl)methyl)piperazin-1-yl)-6-oxohexyl)oxy)benzamide]: the IC50 on AR (setting [6]) is above 1000 nM; in test [1] it was 10 to 500 nM; in the test on IEC6 cells (setting [8]) it was above 1000 nM. In addition, the GI50 was 501 to 1000 nM with 22Rv1 cells (setting [7]) and 10 to 500 nM with LNCap cells (setting [9]).

For `CC[C@@]1(O)C(=O)OCc2c1cc1n(c2=O)Cc2cc3c(CN4CCN(C(=O)C5CCN(c6ccc(C(=O)N[C@H]7CC[C@H](Oc8ccc(C#N)c(Cl)c8)CC7)nn6)CC5)CC4)c(O)ccc3nc2-1` [Compound 14, N-((1r,4r)-4-(3-Chloro-4-cyanophenoxy)cyclohexyl)-6-(4-(4-(((S)-4-ethyl-4,9-dihydroxy-3,14-dioxo-3,4,12,14-tetrahydro-1H-pyrano[3′,4′:6,7]indolizino[1,2-b]quinolin-10-yl)methyl)piperazine-1-carbonyl)piperidin-1-yl)pyridazine-3-carboxamide], the IC50 is 10 to 500 nM at AR (setting [6]), 10 to 500 nM in test [1] and above 1000 nM in the test with IEC6 cells (setting [8]). Moreover, the GI50 in the test with 22Rv1 cells (setting [7]) and with LNCap cells (setting [9]) was 10 to 500 nM each time.

Turning to `CC[C@@]1(O)C(=O)OCc2c1cc1n(c2=O)Cc2cc3c(CN4CCN(CC5CCN(c6ccc(C(=O)N[C@H]7CC[C@H](Oc8ccc(C#N)c(Cl)c8)CC7)nn6)CC5)CC4)c(O)ccc3nc2-1` [Compound 11, N-((1r,4r)-4-(3-Chloro-4-cyanophenoxy)cyclohexyl)-6-(4-((4-(((S)-4-ethyl-4,9-dihydroxy-3,14-dioxo-3,4,12,14-tetrahydro-1H-pyrano[3′,4′:6,7]indolizino[1,2-b]quinolin-10-yl)methyl)piperazin-1-yl)methyl)piperidin-1-yl)pyridazine-3-carboxamide], the IC50 was 10 to 500 nM on AR (setting [6]), 10 to 500 nM in test [1] and 501 to 1000 nM in the test on IEC6 cells (setting [8]). Besides, the GI50 in the test on 22Rv1 cells (setting [7]) and in the test on LNCap cells (setting [9]) was 10 to 500 nM each time.

As to `CC[C@@]1(O)C(=O)OCc2c1cc1n(c2=O)Cc2cc3c(CN(C)C)c(OCCCCCOc4ccc(C(=O)N[C@H]5CC[C@H](Oc6ccc(C#N)c(Cl)c6)CC5)cc4)ccc3nc2-1` [Compound 7, N-((1r,4r)-4-(3-Chloro-4-cyanophenoxy)cyclohexyl)-4-((5-(((S)-10-((dimethylamino)methyl)-4-ethyl-4-hydroxy-3,14-dioxo-3,4,12,14-tetrahydro-1H-pyrano[3′,4′:6,7]indolizino[1,2-b]quinolin-9-yl)oxy)pentyl)oxy)benzamide], the IC50 at AR (setting [6]) is above 1000 nM; in test [1] it was 10 to 500 nM; with IEC6 cells (setting [8]) it was 501 to 1000 nM. The GI50 with 22Rv1 cells (setting [7]) and in the test on LNCap cells (setting [9]) was 10 to 500 nM in each case.
